Experimental data from patent US9828413B2, “Vancomycin derivative, and preparation method and application thereof” (ACESYS PHARMA INC., priority 2013, dated 2017).
Values after ≈ are worked out from the molar mass of the structure shown. Where two headings read alike, the source gives them in different places.

What was measured:
[1] = tested on: Staphylococcus aureus Mu50; assay: In vitro activity assay, minimum inhibitory concentration (MIC), cup-plate method; type: cell-based
Protocol: (§1) In vitro activity assay was performed according to Microbiological Identification of Antibiotics, Appendix XIA, Volume II, Chinese Pharmacopoeia 2010. Vancomycin-sensitive Staphylococcus aureus strains (Newman and Mu 50) were selected as the test strains, and trypticase soy broth was selected as the culture medium.

[2] = tested on: Staphylococcus aureus Newman; assay: as above; type: cell-based; conditions: read-out: MIC values, Staphylococcus aureus Newman
Protocol: as §1

[3] = Solubility test of compounds in water; conditions: 25 °C, thermodynamic from solid
[4] = data from US2010/045201; cited from earlier work
physchem = conditions: 25 °C, water, thermodynamic from solid
[5] = strain Mu50, trypticase soy broth, read-out: MIC values, Staphylococcus aureus Mu50
[6] = strain Newman, trypticase soy broth

Molecule | MIC ([1]; MU50, read-out: MIC values, Staphylococcus aureus Mu50) [µg/mL] | MIC ([2]; NEWMAN) [µg/mL] | solubility at 30 min [3] [mg/mL] | Solubility in water [4] [mg/mL] | MIC [1, 5] [µg/mL] | MIC [2, 6] [µg/mL] | solubility at 30 min (physchem) [µg/mL]
CN[C@H](CC(C)C)C(=O)N[C@H]1C(=O)N[C@@H](CC(N)=O)C(=O)N[C@H]2C(=O)N[C@H]3C(=O)N[C@H](C(=O)N[C@H](C(=O)O)c4cc(O)cc(O)c4-c4cc3ccc4O)[C@H](O)c3ccc(c(Cl)c3)Oc3cc2cc(c3O[C@@H]2O[C@H](CO)[C@@H](O)[C@H](O)[C@H]2O[C@H]2C[C@](C)(N)[C@H](O)[C@H](C)O2)Oc2ccc(cc2Cl)[C@H]1O [Vancomycin] | 8 (≈ 5.52 µM) | 2 (≈ 1.38 µM) | ≥ 100 | – | – | – | –
Oritavancin | – | – | – | <0.1 | – | – | –
CCCCCCOC(CNC1(C)CC(OC2C(Oc3c4cc5cc3Oc3ccc(cc3Cl)[C@@H](O)[C@@H]3NC(=O)C(NC(=O)C5NC(=O)C(CC(N)=O)NC(=O)[C@@H](NC(=O)[C@H](N)CC(C)C)C(O)c5ccc(c(Cl)c5)O4)c4ccc(O)c(c4)-c4c(O)cc(O)cc4C(C(=O)O)NC3=O)OC(CO)C(O)C2O)OC(C)C1O)C(=O)OC (stereo partly shown) [Compound V59] | – | – | – | – | 8 (≈ 4.93 µM) | 2 (≈ 1.23 µM) | < 10000
CCCCCCCCCCOC(CNC1(C)CC(OC2C(Oc3c4cc5cc3Oc3ccc(cc3Cl)[C@@H](OC3CC(C)(N)C(O)C(C)O3)[C@@H]3NC(=O)C(NC(=O)C5NC(=O)C(CC(N)=O)NC(=O)[C@@H](NC(=O)[C@@H](CC(C)C)NC)C(O)c5ccc(c(Cl)c5)O4)c4ccc(O)c(c4)-c4c(O)cc(O)cc4C(C(=O)O)NC3=O)OC(CO)C(O)C2O)OC(C)C1O)C(=O)O (stereo partly shown) [Compound V69] | – | – | – | – | 8 (≈ 4.39 µM) | 2 (≈ 1.1 µM) | 5000 to 10000 (≈ 2750 to 5490 µM)
CC(C)C[C@@H](N)C(=O)NC1C(=O)N[C@@H](CC(N)=O)C(=O)N[C@H]2C(=O)NC3C(=O)N[C@H](C(=O)N[C@@H](C(=O)O)c4cc(O)cc(O)c4-c4cc3ccc4O)[C@H](O)c3ccc(c(Cl)c3)Oc3cc2cc(c3OC2OC(CO)C(O)C(O)C2OC2CC(C)(NCC(OCc3ccc(-c4ccc(Cl)cc4)cc3)C(=O)O)C(O)C(C)O2)Oc2ccc(cc2Cl)[C@H]1O (stereo partly shown) [Compound V54] | – | – | – | – | 2 (≈ 1.16 µM) | < 0.125 | 15000 to 20000 (≈ 8700 to 11600 µM)
CN[C@H](CC(C)C)C(=O)NC1C(=O)N[C@@H](CC(N)=O)C(=O)N[C@H]2C(=O)NC3C(=O)N[C@H](C(=O)N[C@@H](C(=O)O)c4cc(O)cc(O)c4-c4cc3ccc4O)[C@H](O)c3ccc(c(Cl)c3)Oc3cc2cc(c3OC2OC(CO)C(O)C(O)C2OC2CC(C)(NCC(OCc3ccc(C)cc3)C(=O)O)C(O)C(C)O2)Oc2ccc(cc2Cl)[C@H]1O (stereo partly shown) [Compound V23] | – | – | – | – | 8 (≈ 4.87 µM) | 2 (≈ 1.22 µM) | > 8000
CN[C@H](CC(C)C)C(=O)N[C@@H]1C(=O)NC(CC(N)=O)C(=O)NC2C(=O)NC3C(=O)N[C@H](C(=O)NC(C(=O)O)c4cc(O)cc(O)c4-c4cc3ccc4O)[C@H](O)c3ccc(c(Cl)c3)Oc3cc2cc(c3OC2OC(CO)C(O)C(O)C2OC2CC(C)(NCC(OCc3ccc(C)cc3)C(=O)OC)C(O)C(C)O2)Oc2ccc(cc2Cl)C1O (stereo partly shown) [Compound V22] | – | – | – | – | 8 (≈ 4.83 µM) | 2 (≈ 1.21 µM) | < 5000
COC(=O)C(CNC1(C)CC(OC2C(Oc3c4cc5cc3Oc3ccc(cc3Cl)[C@@H](O)[C@@H]3NC(=O)C(NC(=O)[C@@H]5NC(=O)[C@H](CC(N)=O)NC(=O)C(NC(=O)[C@H](N)CC(C)C)[C@H](O)c5ccc(c(Cl)c5)O4)c4ccc(O)c(c4)-c4c(O)cc(O)cc4[C@H](C(=O)O)NC3=O)OC(CO)C(O)C2O)OC(C)C1O)OCc1ccc(-c2ccc(Cl)cc2)cc1 (stereo partly shown) [Compound V55] | – | – | – | – | 2 (≈ 1.15 µM) | < 0.125 | 3000 (≈ 1730 µM)
CCCCOC(CNC1(C)CC(OC2C(Oc3c4cc5cc3Oc3ccc(cc3Cl)[C@@H](O)[C@@H]3NC(=O)C(NC(=O)C5NC(=O)C(CC(N)=O)NC(=O)[C@@H](NC(=O)[C@H](N)CC(C)C)C(O)c5ccc(c(Cl)c5)O4)c4ccc(O)c(c4)-c4c(O)cc(O)cc4C(C(=O)O)NC3=O)OC(CO)C(O)C2O)OC(C)C1O)C(=O)O (stereo partly shown) [Compound V58] | – | – | – | – | > 128 | 64 (≈ 40.5 µM) | 50000 to 60000 (≈ 31700 to 38000 µM)
CN[C@H](CC(C)C)C(=O)N[C@@H]1C(=O)NC(CC(N)=O)C(=O)NC2C(=O)NC3C(=O)N[C@H](C(=O)NC(C(=O)O)c4cc(O)cc(O)c4-c4cc3ccc4O)[C@H](OC3CC(C)(N)C(O)C(C)O3)c3ccc(c(Cl)c3)Oc3cc2cc(c3OC2OC(CO)C(O)C(O)C2OC2CC(C)(NCC(OCc3ccc(-c4ccc(Cl)cc4)cc3)C(=O)O)C(O)C(C)O2)Oc2ccc(cc2Cl)C1O (stereo partly shown) [Compound V63] | – | – | – | – | 2 (≈ 1.06 µM) | < 0.125 | 5000 to 20000 (≈ 2660 to 10600 µM)
COC(=O)C(CNC1(C)CC(OC2C(Oc3c4cc5cc3Oc3ccc(cc3Cl)[C@@H](O)[C@@H]3NC(=O)C(NC(=O)C5NC(=O)C(CC(N)=O)NC(=O)[C@@H](NC(=O)[C@H](N)CC(C)C)C(O)c5ccc(c(Cl)c5)O4)c4ccc(O)c(c4)-c4c(O)cc(O)cc4C(C(=O)O)NC3=O)OC(CO)C(O)C2O)OC(C)C1O)OCc1ccc(Cl)cc1 (stereo partly shown) [Compound V52] | – | – | – | – | 2 (≈ 1.2 µM) | < 0.125 | 20000 (≈ 12000 µM)
CCCCCCOC(CNC1(C)CC(OC2C(Oc3c4cc5cc3Oc3ccc(cc3Cl)[C@@H](O)[C@@H]3NC(=O)C(NC(=O)C5NC(=O)C(CC(N)=O)NC(=O)[C@@H](NC(=O)[C@@H](CC(C)C)NC)C(O)c5ccc(c(Cl)c5)O4)c4ccc(O)c(c4)-c4c(O)cc(O)cc4C(C(=O)O)NC3=O)OC(CO)C(O)C2O)OC(C)C1O)C(=O)OC (stereo partly shown) [Compound V31] | – | – | – | – | 8 (≈ 4.89 µM) | 2 (≈ 1.22 µM) | < 1000
CCCCCCCCCCOC(CNC1(C)CC(OC2C(Oc3c4cc5cc3Oc3ccc(cc3Cl)[C@@H](O)[C@@H]3NC(=O)C(NC(=O)C5NC(=O)C(CC(N)=O)NC(=O)[C@@H](NC(=O)[C@@H](CC(C)C)NC)C(O)c5ccc(c(Cl)c5)O4)c4ccc(O)c(c4)-c4c(O)cc(O)cc4C(C(=O)O)NC3=O)OC(CO)C(O)C2O)OC(C)C1O)C(=O)O (stereo partly shown) [Compound V67] | – | – | – | – | 4 (≈ 2.38 µM) | 2 (≈ 1.19 µM) | 5000 to 10000 (≈ 2980 to 5960 µM)
CN[C@H](CC(C)C)C(=O)N[C@@H]1C(=O)NC(CC(N)=O)C(=O)NC2C(=O)NC3C(=O)N[C@H](C(=O)NC(C(=O)O)c4cc(O)cc(O)c4-c4cc3ccc4O)[C@H](OC3CC(C)(N)C(O)C(C)O3)c3ccc(c(Cl)c3)Oc3cc2cc(c3OC2OC(CO)C(O)C(O)C2OC2CC(C)(NCC(OCc3ccc(Cl)cc3)C(=O)O)C(O)C(C)O2)Oc2ccc(cc2Cl)C1O (stereo partly shown) [Compound V62] | – | – | – | – | 8 (≈ 4.43 µM) | 4 (≈ 2.22 µM) | 5000 to 20000 (≈ 2770 to 11100 µM)
CN[C@H](CC(C)C)C(=O)N[C@@H]1C(=O)NC(CC(N)=O)C(=O)NC2C(=O)NC3C(=O)N[C@H](C(=O)NC(C(=O)O)c4cc(O)cc(O)c4-c4cc3ccc4O)[C@H](O)c3ccc(c(Cl)c3)Oc3cc2cc(c3OC2OC(CO)C(O)C(O)C2OC2CC(C)(NCC(OC)C(=O)OC)C(O)C(C)O2)Oc2ccc(cc2Cl)C1O (stereo partly shown) [Compound V26] | – | – | – | – | 64 (≈ 40.9 µM) | 16 (≈ 10.2 µM) | 4500 (≈ 2870 µM)
CC(C)C[C@@H](N)C(=O)NC1C(=O)N[C@@H](CC(N)=O)C(=O)N[C@H]2C(=O)NC3C(=O)N[C@H](C(=O)N[C@@H](C(=O)O)c4cc(O)cc(O)c4-c4cc3ccc4O)[C@H](O)c3ccc(c(Cl)c3)Oc3cc2cc(c3OC2OC(CO)C(O)C(O)C2OC2CC(C)(NCC(OCc3ccc(-c4ccccc4)cc3)C(=O)O)C(O)C(C)O2)Oc2ccc(cc2Cl)[C@H]1O (stereo partly shown) [Compound V53] | – | – | – | – | 2 (≈ 1.18 µM) | < 0.125 | 20000 (≈ 11800 µM)
CN[C@H](CC(C)C)C(=O)N[C@@H]1C(=O)NC(CC(N)=O)C(=O)NC2C(=O)NC3C(=O)N[C@H](C(=O)NC(C(=O)O)c4cc(O)cc(O)c4-c4cc3ccc4O)[C@H](O)c3ccc(c(Cl)c3)Oc3cc2cc(c3OC2OC(CO)C(O)C(O)C2OC2CC(C)(NCC(OCc3ccc(-c4ccc(Cl)cc4)cc3)C(=O)OC)C(O)C(C)O2)Oc2ccc(cc2Cl)C1O (stereo partly shown) [Compound V13] | – | – | – | – | 2 (≈ 1.14 µM) | < 0.125 | 50000 to 60000 (≈ 28500 to 34200 µM)
